“Also recorded” adds a separate entry of the source.
Experiments:
[1] = test system: intestinal epithelial cell; conditions: rodents, cited from earlier work
AMD1 = AMD1 up-regulation post scratch (immunofluorescence, western blot); format: cell-based, human; conditions: combined pre-treatment: 1 μM Tg 24 hours and 2 mM EGTA 1 hour; 6 hours post scratch
Description: (§1) It was then sought to determine if the up-regulation of AMD1 at the wound-edge was dependent on the wound-induced calcium wave. Human keratinocytes were labelled with the Ca^2+ probe Fluo-4 for 30 minutes prior to scratching to mimic a wound response. […] To assess the impact of a reduced calcium wave on up-regulation of AMD1, cells were pre-treated for 24 hours with 1 μM thapsigargin (Tg) and for 1 hour with 2 mM EGTA prior to scratch to deplete internal calcium stores and extracellular calcium, respectively.
(§2) Keratinocytes were seeded in glass-bottom 35-mm^2 dishes and cultured to full confluency in cell culture media. To deplete intracellular and extracellular Ca^2+ sources, cells were treated with 1 μM thapsigargin (Tg) (Sigma-Aldrich) for 24 hours and 2 mM ethylene glycol tetraacetic acid (EGTA, Sigma-Aldrich) for 1 hour prior to scratch. For Ca^2+ flux imaging, cells were incubated with Fluo-4,AM (Life Technologies; Thermo Fisher Scientific) and imaged with an automated confocal microscope (Spinning disk 3D-FRAP; Nikon Ti) at 0.2 second intervals for 5 minutes. Image analysis was performed using ImageJ software.

N/TERT-1 keratinocytes = assay: In vitro scratch cell migration assay; format: cell-based, human; conditions: for cell migration / closure of scratch wound: control keratinocytes, 5 μM added 48 h prior to scratch, Incucyte wound width
Description: (§3) Human immortalized keratinocytes (Dickson et al., 2000), N/TERT-1 were obtained and cultured in keratinocyte serum-free media (K-SFM; Life Technologies; Thermo Fisher Scientific) supplemented with 25 μg/ml bovine pituitary extract (BPE), 0.2 ng/ml epidermal growth factor (EGF), and 0.3 mM CaCl2, as previously described (Rheinwald et al., 2002). To culture cells to 100% confluence for scratch assays, N/TERT-1 cells were first cultured to 50% confluence in supplemented K-SFM growth medium and then switched to a media with a 1:1 ratio mixture of supplemented K-SFM and DF-K (a mixture of calcium free, glutamine free DMEM (Hyclone; GE Healthcare) with Ham's F-12/GlutaMAX (Gibco; Life Technologies; Thermo Fisher Scientific) at 1:1 (vol/vol) supplemented with 5 μg/ml BPE, 0.2 ng/ml EGF, and 1.5 mM L-glutamine (Life Technologies; Thermo Fisher Scientific)) until 100% confluent. Human HEK293T cells (Dharmacon; GE Healthcare) were used for lentiviral production as the packaging cell line and cultured in high glucose DMEM (Hyclone; GE Healthcare) with 10% fetal calf serum. All cells were grown in a humidified incubator with 5% CO2 at 37° C.
In Vitro Scratch Cell Migration Assay
Confluent keratinocytes on ImageLock 96-well microplates (Essen BioScience, Inc) were scratched using a 96-pin wound maker (Essen BioScience, Inc) to create homogeneous, 700-800-μm wide scratch wounds in cell monolayers. Scratched cells were imaged using a real-time cell imaging system, IncuCyte, (Essen BioScience, Inc) to monitor cell migration. Putrescine, spermidine, or spermine (5 μM, Sigma-Aldrich) were added to cells and incubated for 48 h prior to scratch. For analysis of protein and RNA expression in migrating cells, keratinocytes were cultured to full confluency in a 6-well culture dish (Corning Costar) and scratched with the large end of a 1-mL pipette tip. At specific time points, the cells were either harvested in lysis buffer (150 mM sodium chloride, 1% (v/v) Triton X-100, 0.5% sodium deoxycholate, 1% (v/v) sodium dodecyl sulfate, 50 mM Tris-HCl, 1% (v/v) Nonidet P-40 (NP-40), 0.1 mM phenylmethylsulfonyl fluoride (PMSF), 5 mM EDTA, and 1% (v/v) protease and phosphatase inhibitor cocktail) for western blot or Trizol reagent (Life Technologies; Thermo Fisher Scientific) for RNA analysis.

[2] = test system: scratch-induced calcium wave in keratinocytes; assay: Calcium wave imaging after scratch (Fluo-4); format: cell-based, human; conditions: combined pre-treatment: 1 μM Tg 24 hours and 2 mM EGTA 1 hour prior to scratch
Description: as §1, §2

human ex vivo wounds = assay: Human ex vivo excisional skin wounds, epithelial tongue length; format: cell-based; conditions: 500 μM topically every 24 hours for 3 days; examined after 72 hours; PBS control
Text: Human skin samples were sourced from Dr T. C. Lim at the Yong Loo Lin School of Medicine, National University of Singapore. Written consent from participants was obtained in all cases. The study was done in accordance with the declaration of Helsinki and was approved by a local scientific ethics review board. The skin was further dissected into 6-mm cubes or circles. Excisional skin wounds of approximately 3 to 4 mm were made with surgical scissors. The ex vivo wounded skin explants were cultured at the air-liquid interface and treated topically with 500 μM of putrescine, spermidine, spermine or 1× phosphate-buffered saline (PBS) every 24 hours for 3 days. Non-wounded skin, day 0- and day 3-wounded biopsies were bisected, with half snap-frozen in Optimal Cutting Temperature Compound (OCT) and the other half fixed in 10% buffered formalin saline and embedded in paraffin for histological analysis.
Histological sections were prepared from wound tissue embedded in paraffin or snap-frozen in OCT. […] Images were acquired using a fluorescence microscope (Zeiss AxioImager Z1; Carl Zeiss). […]

sh-AMD1 keratinocytes = conditions: supplementation in cell culture media, listed as Spermine
Description: as §3
Confluent keratinocytes on ImageLock 96-well microplates (Essen BioScience, Inc) were scratched using a 96-pin wound maker (Essen BioScience, Inc) to create homogeneous, 700-800-μm wide scratch wounds in cell monolayers. […]

Structure (SMILES): NCCCC(N)(C(=O)O)C(F)F (racemic) [DFMO, (RS)-2,5-diamino-2-(difluoromethyl)pentanoic acid]
- intestinal epithelial cell migration and proliferation ([1]; ODC1 inhibition): prevents intestinal epithelial cell migration and proliferation

Structure (SMILES): O=C(O)CN(CCN(CC(=O)O)CC(=O)O)CC(=O)O [EDTA]
- AMD1 up-regulation in scratched cells (AMD1): completely abrogates AMD1 protein up-regulation

Structure (SMILES): CCC(/C=N/N=C(N)N)=N\N=C(N)N [EGBG, reference compound]
- cell migration after AMD1 inhibitor (N/TERT-1 keratinocytes; data not shown, concentration not given): resulted in a similar delay in cell migration

Structure (SMILES): O=C(O)CN(CCOCCOCCN(CC(=O)O)CC(=O)O)CC(=O)O [EGTA, ethylene glycol tetraacetic acid]
- propagation of calcium wave upon scratch [2]: effectively prevented the calcium wave
- AMD1 up-regulation in scratched cells (AMD1): completely abrogated

Structure (SMILES): NCCCCN [putrescine, butane-1,4-diamine, reference compound]
- cell migration / closure of scratch wound (N/TERT-1 keratinocytes): significantly impedes cell migration
- cell migration / closure of scratch wound (N/TERT-1 keratinocytes; listed as Putrescine): caused an inhibition of keratinocyte migration and a delay in closure of the scratch wound
- rescue of DFMO effect on intestinal epithelial cell migration and proliferation ([1]; supplementation after DFMO): can be rescued through supplementation with putrescine

Structure (SMILES): NCCCCNCCCN [spermidine, 1,4-butanediamine, N-(3-aminopropyl)]
- epithelial tongue migration / wound repair (human ex vivo wounds): promoted a striking improvement in epithelial tongue migration; also recorded: promote wound repair of excisional human skin wounds

Structure (SMILES): NCCCNCCCCNCCCN [spermine, 1,4-butanediamine, N,N′-bis(3-aminopropyl)]
- cell migration / closure of scratch wound (N/TERT-1 keratinocytes): promoted scratch wound closure in the control cells; also recorded: sufficient to drive increased cell migration
- cell migration / closure of scratch wound (N/TERT-1 keratinocytes; listed as Spermine): promotes the closure of scratch wounds in keratinocytes
- rescue of EGBG-induced delay in cell migration (N/TERT-1 keratinocytes; keratinocytes treated with EGBG, data not shown): similarly rescued by the addition of spermine
- restoration of impaired cell migration in AMD1-knockdown keratinocytes (sh-AMD1 keratinocytes): restores impaired cell migration in sh-AMD1 keratinocytes
- epithelial tongue migration / wound repair (human ex vivo wounds): promoted a striking improvement in epithelial tongue migration; also recorded: promote wound repair of excisional human skin wounds

Structure (SMILES): C/C=C(/C)C(=O)O[C@H]1C(C)=C2[C@H]([C@@H]1OC(=O)CCCCCCC)[C@@](C)(OC(C)=O)C[C@H](OC(=O)CCC)[C@@]1(O)[C@H]2OC(=O)[C@@]1(C)O [thapsigargin]
- propagation of calcium wave upon scratch [2]: effectively prevented the calcium wave
- AMD1 up-regulation in scratched cells (AMD1): completely abrogated; also recorded: completely abrogates AMD1 protein up-regulation

Reference: patent publication US11234945B2, “Wound healing composition” (AGENCY FOR SCIENCE, TECHNOLOGY AND RESEARCH, priority 2016, dated 2022)
